Molecules are shown by their SMILES.

The subject of experiment [1] is C. parvum sporozoites excysted from oocysts shed by infected calves. Briefly: Infectivity of Cryptosporidium oocysts shed by treated calves, excysted and tested on HCT-8 cells. Format: cell-based, Cryptosporidium parvum. The settings on record: FIG. 8. Here is the method:
(§1) HCT-8 (human ileocecal adenocarcinoma) cells were grown in a monolayer to 85-90% confluency in RPMI-1640 medium. Freshly excysted, washed C. parvum sporozoites were mixed with a sodium percarbonate treatment and then added to HCT-8 cells at 1.25×10^6 sporozoites per monolayer. The cells were incubated with the sporozoites for 2 hours at 10% CO2, 37° C. Cells were then washed and incubated in fresh media for 22 hours. Infected, untreated cells served as a control. After incubation, infected cells were harvested and DNA was isolated. The number of C. parvum were quantified using qPCR for the Cryptosporidium oocyst wall protein (COWP) gene.
Oocysts were collected from feces of calves in the control and treatment groups of Example 3 on multiple days during the duration of the study. The oocysts were excysted and analyzed to ensure equal excystation rates between the four treatment groups. HCT-8 cells were infected, harvested, and processed as described in Example 1.

The test system of experiment [2] is C. parvum oocysts (Iowa isolate). The experiment in a line: Clinical calf cryptosporidiosis trial (oocyst shedding, body weight, feces, clinical scores). Format: in vivo, Cryptosporidium parvum. The settings on record: for daily number of oocysts shed compared to control group: FIG. 3; for decrease in weight over the course of the trial: FIG. 5.
The test system of a further experiment is C. parvum sporozoites. The experiment in a line: In vitro Cryptosporidium exposure: C. parvum sporozoites mixed with treatment, added to HCT-8 cells, qPCR of COWP gene. Format: cell-based. The settings on record: all treatment concentrations (0.26, 2.08, 3.125, 6.25, 12.5, 18.75, 25, 450 mg/L); p<0.05; FIG. 1. Here is the method: as §1, with “Sodium percarbonate (0.26, 2.08, 3.125, 6.25, 12.5, 18.75, 25, or 450 mg/L) was tested for its ability to neutralize C. parvum sporozoites in host epithelial cells. HCT-8 (human” for “HCT-8 (human”

The next experiment concerns C. parvum oocysts. The experiment in a line: Mouse Cryptosporidium challenge, infection level in intestines by qPCR. The settings on record: FIG. 2. Format: in vivo, Cryptosporidium parvum. As to the method: Sodium percarbonate (“NPC”) at 0.26 mg/head, 12.5 mg/head, or 450 mg/head was tested in a Cryptosporidium challenge in mice. Eight-day-old ICR or CD-1 mice were divided into treatment (UA) and control (water) groups (n=10/group). Mice were infected with 1×10^4 C. parvum oocysts by oral inoculation. At the time of infection, and for every 12 hours thereafter, mice were treated with 100 μl per dose of NPC or water. A total of 8 doses per mouse were administered before termination of the challenge and collection of the intestines. The experiment was repeated twice (“Challenges I and II”). Infection levels were determined by qPCR against a known standard curve of C. parvum organisms.

As to `O=C([O-])[O-].O=C([O-])[O-].OO.OO.OO.[Na+].[Na+].[Na+].[Na+]` [sodium percarbonate], the “ability of shed oocysts to infect HCT-8 cells compared with oocysts from untreated calves” value in experiment [1] (oocysts from calves treated with high-dose (1000 mg BID) sodium percarbonate) and in experiment [1] (oocysts from calves treated with low-dose (500 mg BID) sodium percarbonate) was “reduced ability to infect HCT-8 cells” each time. Also, the “daily number of oocysts shed compared to control group” value in experiment [2] (calves, 500 mg NPC BID in milk replacer, p<0.05) was “significantly fewer oocysts on Days 4-6 and 9-10 PI”; in experiment [2] (calves, 1000 mg NPC BID in milk replacer, p<0.05), “significantly fewer oocysts on Days 6 and 10 PI”. Besides, the “reduction of mean total number of oocysts shed over the trial compared to control group” value in experiment [2] (calves, 500 mg NPC BID, Days 3-10 PI, p<0.05, FIG. 4) is reported as “about 24%”. Moreover, the “decrease in weight over the course of the trial” value in experiment [2] (infected calves, H-NPC (1000 mg NPC BID)) was 3.6%; in experiment [2] (infected calves, L-NPC (500 mg NPC BID)), 2.5%. Further, the “weight loss compared to the control group” value in experiment [2] (infected calves, both NPC treatment groups (500 and 1000 mg BID)) is “tended to lose less weight”. For the same compound, the “reduction in infection by C. parvum sporozoites of HCT-8 cells compared to untreated control” value in the experiment with C. parvum sporozoites is reported as “significantly reduced infected”. The “dose dependence of percent reduction in C. parvum infection” value in the experiment with C. parvum oocysts (mice, 0.26, 12.5, 450 mg/head) is “increased as treatment dose increased”. Also, in the experiment with C. parvum oocysts (mice, 450 mg/head, 8 doses every 12 hours, oral), the “percent reduction in C. parvum infection compared to control” value is 89.9%.

The values are drawn from US12599628B2, “Mitigation of cryptosporidiosis using hydrogen peroxide-generating compositions” (Purina Animal Nutrition, LLC, priority 2021, dated 2026).
